Reference: PubChem BioAssay AID2060889 (Molecular Pharmacology Branch, DTP, NCI, 2025)
One block for each molecule: values may come before it.

System: LG0567-F671-PDC complex spheroids viability
Experiment: Anticancer human tumor LG0567-F671-PDC patient-derived lung adenocarcinoma cell line growth inhibition [RAS]
Details: for viability, T/C: stronger effect = lower value
Procedure, shortened: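 Multi-cell-type spheroids: tumor cells plus HUVEC endothelial cells and mesenchymal stem cells. RAS-pathway inhibitors were combined with targeted agents, each dosed in half-log steps down from clinical Cmax, or from 10 microM when Cmax was unknown.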
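Further: spheroids exposed to compound for seven days before readout.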
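Wherever IC50 is given: luminescence signal used as a proxy for viable cells.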

IC50 (curve of first compound, second compound 0.000949 µM): < 0.0316 µM
IC50 (curve of first compound, second compound 0.003 µM): < 0.0316 µM
IC50 (curve of first compound, second compound 0.00949 µM): < 0.0316 µM
IC50 (curve of first compound, second compound 0.03 µM): < 0.0316 µM
IC50 (curve of first compound, second compound 0.0949 µM): < 0.0316 µM
IC50 (curve of first compound, second compound 0.3 µM): < 0.0316 µM
Compound: NC1c2ccccc2OC12CCN(c1cnc3c(N4CCCc5ncccc54)n[nH]c3n1)CC2 (stereo not given) + CCn1c(-c2cc(N3CCN(C)CC3)cnc2C(C)OC)c2c3cc(ccc31)-c1csc(n1)CC(NC(=O)C1CC1C)C(=O)N1CCCC(N1)C(=O)OCC(C)(C)C2
viability, T/C (second compound 0.000949 µM, first compound 0.0316 µM): 6.06%
viability, T/C (second compound 0.000949 µM, first compound 0.1 µM): 4.3%
viability, T/C (second compound 0.000949 µM, first compound 0.316 µM): 2.12%
viability, T/C (second compound 0.000949 µM, first compound 1 µM): 1.95%
viability, T/C (second compound 0.000949 µM, first compound 3.16 µM): 1.97%
viability, T/C (second compound 0.000949 µM, first compound 10 µM): 1.51%
viability, T/C (second compound 0.003 µM, first compound 0.0316 µM): 3.74%
viability, T/C (second compound 0.003 µM, first compound 0.1 µM): 2.3%
viability, T/C (second compound 0.003 µM, first compound 0.316 µM): 1.62%
viability, T/C (second compound 0.003 µM, first compound 1 µM): 1.58%
viability, T/C (second compound 0.003 µM, first compound 3.16 µM): 1.33%
viability, T/C (second compound 0.003 µM, first compound 10 µM): 1.84%
viability, T/C (second compound 0.00949 µM, first compound 0.0316 µM): 2.32%
viability, T/C (second compound 0.00949 µM, first compound 0.1 µM): 1.6%
viability, T/C (second compound 0.00949 µM, first compound 0.316 µM): 1.26%
viability, T/C (second compound 0.00949 µM, first compound 1 µM): 0.84%
viability, T/C (second compound 0.00949 µM, first compound 3.16 µM): 1.05%
viability, T/C (second compound 0.00949 µM, first compound 10 µM): 1.1%
viability, T/C (second compound 0.03 µM, first compound 0.0316 µM): 1.64%
viability, T/C (second compound 0.03 µM, first compound 0.1 µM): 1.27%
viability, T/C (second compound 0.03 µM, first compound 0.316 µM): 1.19%
viability, T/C (second compound 0.03 µM, first compound 1 µM): 0.92%
viability, T/C (second compound 0.03 µM, first compound 3.16 µM): 1.02%
viability, T/C (second compound 0.03 µM, first compound 10 µM): 0.81%
viability, T/C (second compound 0.0949 µM, first compound 0.0316 µM): 1.33%
viability, T/C (second compound 0.0949 µM, first compound 0.1 µM): 1.55%
viability, T/C (second compound 0.0949 µM, first compound 0.316 µM): 0.92%
viability, T/C (second compound 0.0949 µM, first compound 1 µM): 0.69%
viability, T/C (second compound 0.0949 µM, first compound 3.16 µM): 0.98%
viability, T/C (second compound 0.0949 µM, first compound 10 µM): 0.76%
viability, T/C (second compound 0.3 µM, first compound 0.0316 µM): 1.37%
viability, T/C (second compound 0.3 µM, first compound 0.1 µM): 1.39%
viability, T/C (second compound 0.3 µM, first compound 0.316 µM): 0.9%
viability, T/C (second compound 0.3 µM, first compound 1 µM): 0.72%
viability, T/C (second compound 0.3 µM, first compound 3.16 µM): 0.85%
viability, T/C (second compound 0.3 µM, first compound 10 µM): 0.72%

IC50 (compound alone, run of 09/09/2024): < 0.00316 µM
IC50 (curve of compound): < 0.00316 µM
Compound: C=CC(=O)N1CCN(c2nc(OCC3CCCN3C)nc3c(F)c(-c4nc(N)cc(C)c4C(F)(F)F)c(Cl)cc23)C(C)C1 (stereo not given)
viability, T/C (compound 0.00316 µM): 16.6% [middle of 12 runs]
viability, T/C (compound 0.01 µM): 14.1% [middle of 12 runs]
viability, T/C (compound 0.0316 µM): 13.4% [middle of 12 runs]
viability, T/C (compound 0.1 µM): 13.5% [middle of 12 runs]
viability, T/C (compound 0.316 µM): 13.8% [middle of 12 runs]
viability, T/C (compound 1 µM): 15.5% [middle of 12 runs]
